Legend:
H9 hESCs = experiment: Preliminary comparison of SHH and SAG for early OPC differentiation (ICC); assay type: cell-based, human; details: 3D, 13 days
Protocol: Following expansion, hPSCs were cultured in early OPC differentiation medium as described in FIG. 4A and fed daily with neural induction medium. Briefly, cells were first patterned with the dual-SMAD inhibitors LDN193189 and SB431542, and then ventralized using SHH or SAG. In some conditions, cells were caudalized using RA. On day 11 of the differentiation, cell-aggregates were split at a 1 to 3 ratio, broken into smaller-size aggregates by gentle pipetting (up and down, 10-15 times), re-encapsulated in the thermoresponsive gel, and fed with OPC proliferation medium. O1 ng/mL of FGF-2 (Peprotech) was then added to the OPC proliferation media described in FIG. 7A (added daily from day 14 until day 18, or from day 20 until day 24 of the differentiation). After FGF treatment, cells were fed every 2-3 days with OPC maturation medium, which included 20 μg/mL of L-Ascorbic Acid (Sigma) from day 75 until day 95. […]
For ICC analysis of cells differentiated in 3D, cell-spheres were transferred onto poly-D-lysine (10 μg/mL) and laminin (10 μg/mL)-coated glass-bottom plates, and incubated with their respective medium to enable cell spreading. […] Image Xpress Micro (IXM) was used for ICC quantification analysis, and Zeiss LSM 710 Axio Observer was used for confocal imaging. Images were analyzed using ImageJ and quantified using CellProfiler.

H9 cells = experiment: ICC of OPC maturation markers (O4, SOX10, NKX2.2, OLIG2) in H9 cells; assay type: cell-based, human
Protocol: Following expansion, hPSCs were cultured in early OPC differentiation medium as described in FIG. 4A and fed daily with neural induction medium. Briefly, cells were first patterned with the dual-SMAD inhibitors LDN193189 and SB431542, and then ventralized using SHH or SAG. In some conditions, cells were caudalized using RA. On day 11 of the differentiation, cell-aggregates were split at a 1 to 3 ratio, broken into smaller-size aggregates by gentle pipetting (up and down, 10-15 times), re-encapsulated in the thermoresponsive gel, and fed with OPC proliferation medium. O1 ng/mL of FGF-2 (Peprotech) was then added to the OPC proliferation media described in FIG. 7A (added daily from day 14 until day 18, or from day 20 until day 24 of the differentiation). After FGF treatment, cells were fed every 2-3 days with OPC maturation medium, which included 20 μg/mL of L-Ascorbic Acid (Sigma) from day 75 until day 95. See FIG. 20 for a detailed description of the differentiation conditions.
For ICC analysis of cells differentiated in 3D, cell-spheres were transferred onto poly-D-lysine (10 μg/mL) and laminin (10 μg/mL)-coated glass-bottom plates, and incubated with their respective medium to enable cell spreading. After 48 hr (for early OPC differentiation) or 5 days (for late stage OPC analysis), cells were fixed with 4% PFA for 15 min at RT. After one wash with PBS, cells were incubated overnight at 4° C. with primary antibody in freshly prepared staining primary solution (5% donkey serum, (DS), 2% bovine serum albumin (BSA) and 0.25% Triton X-100 in PBS). Then, cells were gently washed twice with PBS, and incubated for 2 hr at room temperature (RT) with secondary antibodies and 4′,6-diamidino-2-phenylindole (DAPI) (1:1000) in freshly prepared secondary staining solution (2% DS, 2% BSA and 0.25% Triton X-100 in PBS). Cells were then washed three times with PBS and imaged using a Zeiss Axio Observer epi-fluorescent microscope. Image Xpress Micro (IXM) was used for ICC quantification analysis, and Zeiss LSM 710 Axio Observer was used for confocal imaging. Images were analyzed using ImageJ and quantified using CellProfiler.

[1] = early FGF treatment: FGF-2 daily day 14 to day 18

Compound: CNC1CCC(N(Cc2cccc(-c3ccncc3)c2)C(=O)c2sc3ccccc3c2Cl)CC1 (centres unmarked) [SAG]
- differences in NKX2.2 and OLIG2 expression, SHH vs SAG (H9 hESCs): only minor differences

Compound: FGF-2: basic fibroblast growth factor-2 added to OPC proliferation medium
- fewer O4+ OPCs than with early FGF treatment (H9 cells; FGF-2 from days 20-24, day 95): ~4 fold
- OPC differentiation on day 24 versus analogous condition without FGF (H9 cells; [1]): similar
- number of cells expressing O4 by day 95 (H9 cells; [1]): increased

Compound: Vitamin D [reference compound]
- O4 expression among treated cells (H9 cells; 0.1 μM from day 66 to day 95, H9 hESCs, condition 6 and early FGF): no increase
